{"source": "patent US6660741B2", "about": "“Asymmetric synthesis of (S,S,R)-(-)-actinonin and its analogs and uses therefor” (Sloan-Kettering Institute for Cancer Research, priority 2001, dated 2003)", "key": {"SK-LC-16": {"test_system": "SK-LC-16", "test": "XTT cytotoxicity assay, 5-day culture, SK-LC-16", "type": "cell-based", "details": "Homo sapiens, 120 h, SK-LC-16, NSCLC-SSC, 5 days, read-out: IC50 (μM ± SEM)", "method": "(§1) Actinonin was assayed for cytotoxity in human ovarian carcinoma, prostate carcinoma, mammary carcinoma, head and neck squamous cell carcinoma (HNSSC), non-small-cell-lung-cancer adenocarcinoma (NSCLC-AdCa), and non-small-cell-lung-cancer squamous cells (NSCLC-SSC) (15). Actinonin was also tested against acute mylegenous leukemia (AML) cells."}, "MDA-MB468": {"test_system": "MDA-MB468", "test": "XTT cytotoxicity assay, 5-day culture, MDA-MB468", "type": "cell-based", "details": "Homo sapiens, MDA-MB-468, 120 h, MDA-MB468, Mammary Ca, 5 days, read-out: IC50 (μM ± SEM)", "method": "as §1"}, "HT1080": {"test_system": "HT1080", "test": "XTT cytotoxicity assay, 5-day culture, HT1080", "type": "cell-based", "details": "Homo sapiens, HT-1080, 120 h, HT1080, HNSSC, 5 days, read-out: IC50 (μM ± SEM)", "method": "as §1"}, "AKR leukemia": {"test_system": "AKR leukemia", "details": "cited from earlier work"}, "[1]": {"test_system": "all the cell lines tested", "test": "Cytotoxicity of actinonin, summary over all cell lines tested", "type": "cell-based, human", "details": "in the μM range", "method": "as §1"}, "HL-60": {"test_system": "HL-60", "test": "XTT cytotoxicity assay, 5-day culture, HL-60", "type": "cell-based", "details": "Homo sapiens, 120 h, HL-60, PML, 5 days, read-out: IC50 (μM ± SEM)", "method": "as §1"}, "[2]": {"test_system": "human leukemia and lymphoma cells", "details": "cited from earlier work"}, "SK-LC-8": {"test_system": "SK-LC-8", "test": "XTT cytotoxicity assay, 5-day culture, SK-LC-8", "type": "cell-based", "details": "Homo sapiens, 120 h, SK-LC-8, NSCLC-AdCa, 5 days, read-out: IC50 (μM ± SEM)", "method": "as §1"}, "tumor cell lines": {"test_system": "tumor cell lines", "details": "cited from earlier work"}, "A2780": {"test_system": "A2780", "test": "XTT cytotoxicity assay, 5-day culture, A2780", "type": "cell-based", "details": "Homo sapiens, 120 h, A2780, Ovarian Ca, 5 days, read-out: IC50 (μM ± SEM)", "method": "as §1"}, "PC-3": {"test_system": "PC-3", "test": "XTT cytotoxicity assay, 5-day culture, PC-3", "type": "cell-based", "details": "Homo sapiens, 120 h, PC-3, Prostate Ca, 5 days, read-out: IC50 (μM ± SEM)", "method": "as §1"}, "TSU-PR^1": {"test_system": "TSU-PR^1", "test": "XTT cytotoxicity assay, 5-day culture, TSU-PR1", "type": "cell-based", "details": "Homo sapiens, 120 h, TSU-PR1, Prostate Ca, 5 days, read-out: IC50 (μM ± SEM)", "method": "as §1"}, "SK-BRIII": {"test_system": "SK-BRIII", "test": "XTT cytotoxicity assay, 5-day culture, SK-BRIII", "type": "cell-based", "details": "Homo sapiens, 120 h, Mammary Ca, 5 days, read-out: IC50 (μM ± SEM)", "method": "as §1"}, "[3]": {"test_system": "HL60 (acute myeloid leukemia, CD13 positive) cells", "test": "Inhibition of tritiated thymidine incorporation, 5 day, HL60", "type": "cell-based", "details": "Homo sapiens, HL-60, 120 h, HL60, 5 days", "method": "(§2) Actinonin was purchased from Sigma (St. Louis, Mo.). Biotinylated-Actinonin and all analogs were synthesized. Actinonin stock solution was 5 mg/ml in 10% ethanol. Biotinylated-actinonin and all other analogs were diluted in 10% DMSO to give stock solutions in the range of 1-20 mg/ml.\n(§3) Daudi (B lineage Burkitt's lymphoma, CD13 negative) and HL60 (acute myeloid leukemia, CD13 positive) cells were maintained in culture using RPMI 1640 supplemented with 10% heat-inactivated FBS (Omega Scientific, Inc., Tarzana, Calif.) and 1% L-glutamine (Gibco/Invitrogen, Carlsbad, Calif.) at 37° C. in a humidified atmosphere of 5% CO2. Cell viability was higher than 90%, and cells were free of mycoplasma contamination.\n(§4) An aliquot of 200 ul of cells (10,000 cells/well) was washed and incubated at 37° C. in 96-well plates in the presence or absence of actinonin/analogs. Serial dilutions were made in complete media. After 5 days of incubation, 50 ul of 10 uCi/mL tritiated thymidine (PerkinElmer, Boston, Mass.) was added to each well and allowed to incorporate for 5 hours. Plates were frozen at −80° C. overnight and cells were harvested onto filtermats (Wallac, Finland) using a semi-automatic harvester (Skatron, Sterling, Va.). Filtermats were counted in a 1205 Betaplate™ liquid scintillation counter (Wallac, Finland). The reference numbers refer to those analogs disclosed in Example 6. Compounds 35, 42, 48, 52, 53, and 56 are effective at inhibiting cell growth."}, "DU-145": {"test_system": "DU-145", "test": "XTT cytotoxicity assay, 5-day culture, DU-145", "type": "cell-based", "details": "Homo sapiens, 120 h, DU-145, Prostate Ca, 5 days, read-out: IC50 (μM ± SEM)", "method": "as §1"}, "[4]": {"test_system": "Daudi (B lineage Burkitt's lymphoma, CD13 negative) cells", "test": "Inhibition of tritiated thymidine incorporation, 5 day, Daudi", "type": "cell-based", "details": "Homo sapiens, 120 h, 5 days", "method": "as §2, §3, §4"}, "[5]": {"test_system": "CWR22 human prostate tumor", "details": "for Change in tumor Vol. (mm^3): initial 45 mm^3; for Ave. Tumor Diameter (mm ± SEM): initial tumor diameter 4.4", "method": "Actinonin was also evaluated against the CWR22 human prostate tumor xenografted in nude mice (15)."}}, "note": "Where two headings read alike, the source gives them in different places.", "data": [{"smiles": "CCCCC[C@H](CC(=O)NO)C(=O)N[C@H](C(=O)N1CCC[C@H]1CO)C(C)C", "note": "[Actinonin, (S,S,R)-(−)-Actinonin]", "values": [{"measurement": "IC50", "setting": "SK-LC-16", "result": "12 ± 2", "unit": "µM"}, {"measurement": "IC50", "setting": "MDA-MB468", "result": "7.1 ± 1", "unit": "µM"}, {"measurement": "IC50", "setting": "HT1080", "result": "11 ± 2", "unit": "µM"}, {"measurement": "treatment of AKR leukemia", "setting": "AKR leukemia; AKR mice", "result": "treats AKR leukemia"}, {"measurement": "toxicity in AKR mice", "setting": "AKR leukemia; mouse, in vivo", "result": "minimal toxicity"}, {"measurement": "cytotoxicity against all the cell lines tested", "setting": "[1]", "result": "remarkably cytotoxic"}, {"measurement": "IC50", "setting": "HL-60", "result": "6.8 ± 1", "unit": "µM"}, {"measurement": "cell cycle arrest and apoptosis", "setting": "[2]", "result": "induces GI arrest and apoptosis"}, {"measurement": "IC50", "setting": "SK-LC-8", "result": "14 ± 2", "unit": "µM"}, {"measurement": "cytotoxicity towards tumor cell lines in vitro", "setting": "tumor cell lines", "result": "exhibits cytotoxicity"}, {"measurement": "IC50", "setting": "A2780", "result": "4.8 ± 1", "unit": "µM"}, {"measurement": "IC50", "setting": "PC-3", "result": "10 ± 1", "unit": "µM"}, {"measurement": "IC50", "setting": "TSU-PR^1", "result": "9.1 ± 1.5", "unit": "µM"}, {"measurement": "IC50", "setting": "SK-BRIII", "result": "7.9 ± 1", "unit": "µM"}, {"measurement": "IC50", "setting": "[3]; read-out: HL60 IC50 (uM), 5 day thymidine incorporation", "result": 10.6, "unit": "µM"}, {"measurement": "IC50", "setting": "[3]; read-out: HL60 IC50 (ug/mL), 5 day thymidine incorporation", "result": 4.1, "unit": "µg/mL"}, {"measurement": "IC50", "setting": "DU-145", "result": 17, "unit": "µM"}, {"measurement": "IC50", "setting": "[4]; read-out: Daudi IC50 (uM), 5 day thymidine incorporation", "result": 6.7, "unit": "µM"}, {"measurement": "IC50", "setting": "[4]; read-out: Daudi IC50 (ug/mL), 5 day thymidine incorporation", "result": 2.6, "unit": "µg/mL"}, {"measurement": "Inhibition T/C %", "setting": "[5]; 300 mg/kg ip", "result": 97, "unit": "%"}, {"measurement": "Change in tumor Vol. (mm^3)", "setting": "[5]; 300 mg/kg ip", "result": "+36 mm^3"}, {"measurement": "Ave. Tumor Diameter (mm ± SEM)", "setting": "[5]; 300 mg/kg ip", "result": "5.4 ± 1", "unit": "mm"}, {"measurement": "Inhibition T/C %", "setting": "[5]; 600 mg/kg ip", "result": 88, "unit": "%"}, {"measurement": "Change in tumor Vol. (mm^3)", "setting": "[5]; 600 mg/kg ip", "result": "+142 mm^3"}, {"measurement": "Ave. Tumor Diameter (mm ± SEM)", "setting": "[5]; 600 mg/kg ip", "result": "7.1 ± 2", "unit": "mm"}, {"measurement": "tumor growth inhibition", "setting": "[5]; at a dose slightly below the maximum tolerated dose (MTD) for the mouse", "result": "excellent tumor growth inhibition"}]}]}
